Legend:
Foc TR4 chlamydospores = assay: In vitro efficacy of metam sodium on Foc TR4 chlamydospores (colony growth on PDA plates); type: cell-based, Fusarium oxysporum f. sp. cubense Tropical Race 4
Procedure: Foc TR4 chlamydospores were extracted from infested soil and incubated with a dilution series of metam sodium for 5 min and 60 min at room temperature. Thereafter, the samples were diluted 10× to get reduction of the treatment and sufficient dilution of chlamydospores to avoid lack of resolution when grown on plate. Aliquots of 100 μl were plated on PDA plates in duplicate and incubated for 3 days at 25° C. Plates were photographed and scored.

Cavendish banana plants = assay: Field trial: banana plant growth and development after metam sodium soil injection at 30 cm and 60 cm; type: in vivo, Musa (Cavendish banana)
Procedure: (§1) Metam Sodium Application. Metam sodium 510 SL (equivalent to 42% w/w) was applied to soil at the following doses: 0 liters per hectare (L/ha), 750 L/ha, 1500 L/ha, 2250 L/ha, 3000 L/ha.
(§2) Prior to injection, soil was prepared using a rototiller to break the soil structure from 0 cm to 80 cm deep, allowing for the smooth and even injection application by an injection machine. The soil was then leveled and made uniform, and the metam sodium was applied at two depths: 30 cm and 60 cm, using injection methods. The temperature was at a minimum of 10° C. and soil humidity was between 50 and 60% holding capacity, allowing the applied product to transform from metam sodium (liquid) to MITC (gas).
(§3) The application was made using an injection machine wherein the machine lowered shanks and began moving forward such that the shanks lowered to a depth of 60 cm and injectors applied the metam sodium into the soil. When the injection at 60 cm was complete, the process was repeated for the entire field at 30 cm. The treated soil in the field was then sealed using a packer roller (which was part of the injection machinery, located at the back end of the machine), after each application.
Plant Selection and Transplantation. Cavendish banana plants were used for this investigation. In order to avoid plants already contaminated by other soil, all plants were produced in vitro using art-recognized methods. Plants were transplanted into the field 14 days after the final soil reading was taken (21 days after treatment).
Data Gathering. Data were gathered at monthly intervals beginning three months after banana plants were transplanted. A total of three data collection sessions were conducted. Data including the number of leaves, plant height, and girth size were collected.

[1] = tested on: F. oxysporum f. sp. cubense; assay: Panama disease analysis of field soil samples after metam sodium injection (plating on Komada medium); type: in vivo, Fusarium oxysporum f. sp. cubense Tropical Race 4; settings: any of the treated groups; any day post application
Procedure: as §1, §2, §3
Soil Analysis. Soil samples were obtained at 20, 40, and 60 cm before application and every 24 hours beginning 48 hours after application, for seven days.
Plant Pathology Analysis. […]

[2] = 750 L/ha, six months after treatment
[3] = 1500 L/ha, six months after treatment
[4] = 2250 L/ha, six months after treatment
[5] = 3000 L/ha, six months after treatment

CNC(=S)S [metam sodium, sodium N-methyldithiocarbamate]
reducing the number of surviving chlamydospores, measured as growing colonies (Foc TR4 chlamydospores; 100× dilution, prolonged incubation (60 min vs 5 min)): more effective | efficacy on Foc TR4 colony growth (Foc TR4 chlamydospores; dilution of 10×, incubation time 5 minutes): effective | efficacy on Foc TR4 colony growth (Foc TR4 chlamydospores; dilution of 100×, 5 and 60 minutes): less effective | reduction in viability of Foc TR4 chlamydospores (Foc TR4 chlamydospores; first test, dilutions from 1000 up to 10×10^6-fold, 60 min): No significant reduction in viability | efficacy against Foc TR4 chlamydospores (Foc TR4 chlamydospores; in vitro conditions, dependent on high concentrations): effective against Foc TR4 chlamydospores | efficacy on chlamydospore survival (Foc TR4 chlamydospores; second test, 10× and 100× dilutions): (partially) effective | number of chlamydospores that survived (Foc TR4 chlamydospores; second test, dilutions of 1000× and more): did not affect the number of chlamydospores that survived | average girth size of banana plant, increase (Cavendish banana plants; 750 L/ha): ~1 cm | average height of banana plant, increase (Cavendish banana plants; 750 L/ha): ~5 cm | percent of plants at either shooting or bagging stage (Cavendish banana plants; [2]): 11% | percent of plants at shooting stage (Cavendish banana plants; [2]): 9% | plants reaching bagging stage (Cavendish banana plants; [2]): did not have a meaningful effect | average girth size of banana plant, increase (Cavendish banana plants; 1500-3000 L/ha): 4-6 cm | average height of banana plant, increase (Cavendish banana plants; 1500-3000 L/ha): 20-23 cm | percent of plants at either shooting or bagging stage (Cavendish banana plants; [3]): 28% | percent of plants at shooting stage (Cavendish banana plants; [3]): 10% | percent of plants at bagging stage (Cavendish banana plants; 1500 to 3000 L/ha, six months after treatment): 11-19% | percent of plants at either shooting or bagging stage (Cavendish banana plants; [4]): 27% | percent of plants at shooting stage (Cavendish banana plants; [4]): 17% | percent of plants at either shooting or bagging stage (Cavendish banana plants; [5]): 35% | percent of plants at shooting stage (Cavendish banana plants; [5]): 22% | average number of leaves, increase (Cavendish banana plants; regardless of dose applied (750-3000 L/ha), vs 0 L/ha): roughly 1.5 fold | soil contamination: Foc TR4 detection [1]: No Foc TR4 was detected

From patent US20230143490A1, “METHODS OF TREATING SOIL” (Taminco BV, priority 2020, published 2023)
